Source: PubChem BioAssay (NCI)
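The compound was tested at five concentrations on cells cultured in 96-well plates, with a 48-hour exposure period. GI50 marks 50% less growth. Definition used: TGI = concentration required for complete inhibition of growth.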

Key:
Assay in all cases: growth of human tumour cells (NCI), 48 h
HT29 colon = system: HT29 colon
M14 melanoma = system: M14 melanoma
HOP-62 NSCLC = system: HOP-62 NSCLC
LOX IMVI melanoma = system: LOX IMVI melanoma
PC-3 prostate = system: PC-3 prostate
RPMI-8226 leukemia = system: RPMI-8226 leukemia
SR leukemia = system: SR leukemia
HS 578T breast = system: HS 578T breast
SF-268 CNS = system: SF-268 CNS
UACC-257 melanoma = system: UACC-257 melanoma
A498 renal = system: A498 renal
HCT-15 colon = system: HCT-15 colon
MALME-3M melanoma = system: MALME-3M melanoma
ACHN renal = system: ACHN renal
UACC-62 melanoma = system: UACC-62 melanoma
SNB-75 CNS = system: SNB-75 CNS
NCI/ADR-RES ovarian = system: NCI/ADR-RES ovarian
MCF7 breast = system: MCF7 breast
OVCAR-8 ovarian = system: OVCAR-8 ovarian
TK-10 renal = system: TK-10 renal
786-0 renal = system: 786-0 renal
K-562 leukemia = system: K-562 leukemia
NCI-H23 lung = system: NCI-H23 lung
KM12 colon = system: KM12 colon
MOLT-4 leukemia = system: MOLT-4 leukemia
MDA-MB-231 breast = system: MDA-MB-231 breast
SN12C renal = system: SN12C renal
RXF 393 renal = system: RXF 393 renal
IGROV1 ovarian = system: IGROV1 ovarian
BT-549 breast = system: BT-549 breast
SK-MEL-28 melanoma = system: SK-MEL-28 melanoma
OVCAR-3 ovarian = system: OVCAR-3 ovarian
UO-31 renal = system: UO-31 renal
SNB-19 CNS = system: SNB-19 CNS
NCI-H460 lung = system: NCI-H460 lung
SW-620 colon = system: SW-620 colon
HOP-92 NSCLC = system: HOP-92 NSCLC
SK-OV-3 ovarian = system: SK-OV-3 ovarian
OVCAR-5 ovarian = system: OVCAR-5 ovarian
NCI-H226 lung = system: NCI-H226 lung
A549 NSCLC = system: A549 NSCLC
HCC-2998 colon = system: HCC-2998 colon
HCT-116 colon = system: HCT-116 colon
T-47D breast = system: T-47D breast
COLO 205 colon = system: COLO 205 colon
DU-145 prostate = system: DU-145 prostate
OVCAR-4 ovarian = system: OVCAR-4 ovarian
SK-MEL-2 melanoma = system: SK-MEL-2 melanoma
NCI-H522 lung = system: NCI-H522 lung
SK-MEL-5 melanoma = system: SK-MEL-5 melanoma
EKVX NSCLC = system: EKVX NSCLC
CAKI-1 renal = system: CAKI-1 renal
MDA-MB-435 = system: MDA-MB-435
U251 CNS = system: U251 CNS
CCRF-CEM leukemia = system: CCRF-CEM leukemia
SF-295 CNS = system: SF-295 CNS
HL-60(TB) leukemia = system: HL-60(TB) leukemia
SF-539 CNS = system: SF-539 CNS

Which results are given for O=C(N/N=C\c1ccc([N+](=O)[O-])cc1)c1ccc2nc(-c3ccc(Br)cc3)[nH]c2c1?
GI50 (HT29 colon): 939 nM; TGI (HT29 colon): 2680 nM; GI50 (M14 melanoma): 1400 nM; TGI (M14 melanoma): 6690 nM; GI50 (HOP-62 NSCLC): 1900 nM; TGI (HOP-62 NSCLC): 10500 nM; GI50 (LOX IMVI melanoma): 978 nM; TGI (LOX IMVI melanoma): 3140 nM; GI50 (PC-3 prostate): 1300 nM; TGI (PC-3 prostate): 9400 nM; GI50 (RPMI-8226 leukemia): 875 nM; TGI (RPMI-8226 leukemia): 2880 nM; GI50 (SR leukemia): 891 nM; TGI (SR leukemia): 4550 nM; GI50 (HS 578T breast): 1590 nM; TGI (HS 578T breast): 17000 nM; GI50 (SF-268 CNS): 3870 nM; TGI (SF-268 CNS): 96900 nM; GI50 (UACC-257 melanoma): 1260 nM; TGI (UACC-257 melanoma): 6350 nM; GI50 (A498 renal): 1620 nM; TGI (A498 renal): 8340 nM; GI50 (HCT-15 colon): 1220 nM; TGI (HCT-15 colon): 14800 nM; GI50 (MALME-3M melanoma): 1270 nM; TGI (MALME-3M melanoma): 4630 nM; GI50 (ACHN renal): 1920 nM; TGI (ACHN renal): > 51700 nM; GI50 (UACC-62 melanoma): 1610 nM; TGI (UACC-62 melanoma): 14500 nM; GI50 (SNB-75 CNS): 3790 nM; TGI (SNB-75 CNS): 20000 nM; GI50 (NCI/ADR-RES ovarian): 18500 nM; TGI (NCI/ADR-RES ovarian): > 100000 nM; GI50 (MCF7 breast): 704 nM; TGI (MCF7 breast): 2260 nM; GI50 (OVCAR-8 ovarian): 979 nM; TGI (OVCAR-8 ovarian): 4620 nM; GI50 (TK-10 renal): 2960 nM; TGI (TK-10 renal): 26000 nM; GI50 (786-0 renal): 2920 nM; TGI (786-0 renal): 13000 nM; GI50 (K-562 leukemia): 882 nM; TGI (K-562 leukemia): 4180 nM; GI50 (NCI-H23 lung): 398 nM; TGI (NCI-H23 lung): 3160 nM; GI50 (KM12 colon): 1200 nM; TGI (KM12 colon): 9300 nM; GI50 (MOLT-4 leukemia): 912 nM; TGI (MOLT-4 leukemia): 4390 nM; GI50 (MDA-MB-231 breast): 2930 nM; TGI (MDA-MB-231 breast): 12000 nM; GI50 (SN12C renal): 1220 nM; TGI (SN12C renal): 14100 nM; GI50 (RXF 393 renal): 1130 nM; TGI (RXF 393 renal): 3790 nM; GI50 (IGROV1 ovarian): 1610 nM; TGI (IGROV1 ovarian): 14800 nM; GI50 (BT-549 breast): 911 nM; TGI (BT-549 breast): 3400 nM; GI50 (SK-MEL-28 melanoma): 1900 nM; TGI (SK-MEL-28 melanoma): 11700 nM; GI50 (OVCAR-3 ovarian): 3080 nM; TGI (OVCAR-3 ovarian): 7950 nM; GI50 (UO-31 renal): 2160 nM; TGI (UO-31 renal): > 51100 nM; GI50 (SNB-19 CNS): 2290 nM; TGI (SNB-19 CNS): 39600 nM; GI50 (NCI-H460 lung): 914 nM; TGI (NCI-H460 lung): 2530 nM; GI50 (SW-620 colon): 1270 nM; TGI (SW-620 colon): 4950 nM; GI50 (HOP-92 NSCLC): 2580 nM; TGI (HOP-92 NSCLC): 9260 nM; GI50 (SK-OV-3 ovarian): 2900 nM; TGI (SK-OV-3 ovarian): > 70700 nM; GI50 (OVCAR-5 ovarian): 2630 nM; TGI (OVCAR-5 ovarian): > 58800 nM; GI50 (NCI-H226 lung): 2580 nM; TGI (NCI-H226 lung): > 54700 nM; GI50 (A549 NSCLC): 1610 nM; TGI (A549 NSCLC): > 31200 nM; GI50 (HCC-2998 colon): 1300 nM; TGI (HCC-2998 colon): 3960 nM; GI50 (HCT-116 colon): 1020 nM; TGI (HCT-116 colon): 3680 nM; GI50 (T-47D breast): 955 nM; TGI (T-47D breast): 3280 nM; GI50 (COLO 205 colon): 842 nM; TGI (COLO 205 colon): 2100 nM; GI50 (DU-145 prostate): 1630 nM; TGI (DU-145 prostate): > 54200 nM; GI50 (OVCAR-4 ovarian): 1450 nM; TGI (OVCAR-4 ovarian): > 43000 nM; GI50 (SK-MEL-2 melanoma): 3990 nM; TGI (SK-MEL-2 melanoma): 16600 nM; GI50 (NCI-H522 lung): 903 nM; TGI (NCI-H522 lung): 2920 nM; GI50 (SK-MEL-5 melanoma): 912 nM; TGI (SK-MEL-5 melanoma): 2880 nM; GI50 (EKVX NSCLC): 1810 nM; TGI (EKVX NSCLC): 97500 nM; GI50 (CAKI-1 renal): 1670 nM; TGI (CAKI-1 renal): 22600 nM; GI50 (MDA-MB-435): 1420 nM; TGI (MDA-MB-435): 5060 nM; GI50 (U251 CNS): 1110 nM; TGI (U251 CNS): 3410 nM; GI50 (CCRF-CEM leukemia): 1340 nM; TGI (CCRF-CEM leukemia): 8010 nM; GI50 (SF-295 CNS): 1300 nM; TGI (SF-295 CNS): 13400 nM; GI50 (HL-60(TB) leukemia): 801 nM; TGI (HL-60(TB) leukemia): 4960 nM; GI50 (SF-539 CNS): 1920 nM; TGI (SF-539 CNS): 7900 nM
